pIC50, pKi: −log10 of the molar value. “And” between values parts separate entries of the source, which are not always exact repeats. Identical values can stand only once. Non-standard residues stand in square brackets, D forms with d. Residues, ends and D or L forms follow the SMILES beside them. *: point of attachment. Cha = N[C@@H](CC1CCCCC1)C(=O)O; dChg = N[C@@H](C(=O)O)C1CCCCC1; dPhg = N[C@@H](C(=O)O)c1ccccc1; pNA = O=[N+]([O-])c1ccc(N*)cc1; Chg = N[C@H](C(=O)O)C1CCCCC1
target: T1, Human urinary kallikrein (Homo sapiens, UniProt P06870); experiment: KI determination: inhibition of HUK cleavage of chromogenic substrate S-2266; format: biochemical; conditions: HUK, substrate S-2266, pH 9.0, 37 C; read-out: KI
T1 construct: Human urinary kallikrein (hereinafter "HUK") was highly purified using a modification of published methods; from tissue; host or cells: human urine
T1 sequence (P06870 25-262): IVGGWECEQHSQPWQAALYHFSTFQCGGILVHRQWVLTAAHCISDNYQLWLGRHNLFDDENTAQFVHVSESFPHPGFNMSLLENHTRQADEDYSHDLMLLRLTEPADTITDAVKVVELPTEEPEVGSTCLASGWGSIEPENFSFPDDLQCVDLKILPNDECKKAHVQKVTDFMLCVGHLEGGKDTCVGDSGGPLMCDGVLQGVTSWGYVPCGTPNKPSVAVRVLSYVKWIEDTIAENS
Description: (§1) Human urinary kallikrein (hereinafter "HUK") was highly purified using a modification of published methods that employ ultrafiltration, aprotinin-CH-sepharose affinity chromatography, and Sephadex G-100 gel filtration [ole-MoiYoi et al., Proc. Natl. Acad. Sci. USA 76: 3121-3125 (1979)]. […] The pH of each fraction was determined immediately upon elution, and the fraction was neutralized by addition of 2.0 ml of 2M Tris-HCL buffer (pH 8.0).
KI Determinations: KI measurements were performed using a HP8450A diode array spectrophotometer (Hewlett Packard; Palo Alto, Calif.) attached to a Model 216 computer using the multi-component assay program modified to allow simultaneous determination of reaction velocity in four samples. Dixon plots were used to data reduction and for calculation of […]. […] Inhibition of biologically active kinin from LMW-kininogen was done at pH 7.7 and 37 C.
Procedurally, the KI values for the preliminary analogue inhibitors reported previously [Okunishi et al., Hypertension 7 (Suppl. I): I-72-I-75 (1985)] were determined by adding the chromogenic substrate S-2266 comprising D-Val-Leu-Arg-4-nitroaniline to a mixture of the analogue inhibitor and the HUK.
Initially, the inhibitor constant (KI) for each of these novel inhibitor compositions was determined using purified HUK and the tripeptide nitroanilide, S-2266. The ability to inhibit hydrolysis of the S-2266 substrate was performed in 50 mM tris-HCL buffer (pH 9.0) at 37 C. Subsequently, the ability of these novel inhibitors to inhibit human plasma kallikrein and bovine pancreatic trypsin were similarly examined using the specific substrates H-D-Pro-Phe-Arg-p-nitroanilide (S-2302) and Glu-Gly-Arg-p-nitroanilide (S-2444) respectively. The degradation products of each series was purified by HPLC and quantified by liquid scintillation counting as previously described.

| Compound | pKi |
| --- | --- |
| CC(=O)N[C@@H](Cc1ccccc1)C(=O)N[C@@H](CCCN=C(N)N)C(=O)N[C@@H](CO)C(=O)N[C@H](C(=O)N[C@@H](CCC(N)=O)C(N)=O)C(C)C [KKI-4, Ac--Phe--Arg--Ser--Val--Gln--NH2, reference compound] (Ac-FRSVQ-NH2) | 4.46 |
| CC(=O)N1CCC[C@H]1C(=O)N[C@@H](Cc1ccccc1)C(=O)N[C@@H](CCCNC(=N)N)C(=O)N[C@@H](CO)C(=O)N[C@H](C(=O)N[C@@H](CCC(N)=O)C(N)=O)C(C)C [KKI-5, Ac--Pro--Phe--Arg--Ser--Val--Gln--NH2, reference compound] (Ac-PFRSVQ-NH2) | 3.81 and 3.87 |
| CC(=O)N[C@@H](CO)C(=O)N1CCC[C@H]1C(=O)N[C@@H](Cc1ccccc1)C(=O)N[C@@H](CCCNC(=N)N)C(=O)N[C@@H](CO)C(=O)N[C@H](C(=O)N[C@@H](CCC(N)=O)C(N)=O)C(C)C [KKI-6, Ac--Ser--Pro--Phe--Arg--Ser--Val--Gln--NH2, reference compound] (Ac-SPFRSVQ-NH2) | 4.14 |

target: T1, Human urinary kallikrein; experiment: IC50 of tripeptide 4-nitroanilides against HUK cleavage of S-2266; format: biochemical; conditions: S-2266, 4.0 ng HUK, 37 C, pH 9.0
Description: An evaluation of other possible peptide sequences and their potential effect as substrate analogue inhibitors specifically of tissue kallikrein was undertaken using chromogenic substrates comprising alternate series of tripeptide 4-nitroanilides using previously described methods [Amundsen et al., "Methods For The Determination Of Glandular Kallikrein By Means Of A Chromogenic Tripeptide Substrate," in Kinins-II. Part A. Plenum Press, 1979, pages 83-95]. This methodology relies on the capacity of HUK to cleave p-nitroaniline from specifically synthesized tripeptide 4-nitroanilines. Controls for this experimental series included S-2266 comprising D-Val-Leu-Arg-4NA; S-2444 comprising D-Glu-Gly-Arg-4NA; and S-2302 comprising D-Pro-Phe-Arg-4NA respectively. The 50% inhibitory concentration (IC50) values for each synthesized tripeptide 4-nitroanilide was determined at 37 C. at pH 9.0 using the specific kallikrein substrates S-2266 (Kabi, Helena Laboratories, Beaumont, Tex.). 4.0 nanograms (hereinafter "ng") of HUK were used in each sample. Blanks lacking S-2266 were run in parallel to correct for hydrolysis of all samples. In all cases, the amount of 4-nitroaniline generated from each tripeptide was less than 10% of that observed for the hydrolysis of S-2266.

| Compound | pIC50 |
| --- | --- |
| N=C(N)NCCC[C@H](NC(=O)[C@H](Cc1ccccc1)NC(=O)[C@H](N)C1CCCCC1)C(=O)Nc1ccc([N+](=O)[O-])cc1 [D-Chg--Phe--Arg--4NA] (H-[dChg]-Phe-Arg-pNA) | 5.43 |
| NCCCC[C@H](NC(=O)[C@H](CC1CCCCC1)NC(=O)[C@H](N)C1CCCCC1)C(=O)Nc1ccc([N+](=O)[O-])cc1 [D-Chg--Cha--Lys--4NA] (H-[dChg]-[Cha]-Lys-pNA) | 3.82 |
| N=C(N)NCCC[C@H](NC(=O)[C@H](CC1CCCCC1)NC(=O)[C@@H](N)C1CCCCC1)C(=O)Nc1ccc([N+](=O)[O-])cc1 [L-Chg--Cha--Arg--4NA] (H-[Chg]-[Cha]-Arg-pNA) | 4.94 |
| N=C(N)NCCC[C@H](NC(=O)[C@H](CC1CCCCC1)NC(=O)[C@H](N)c1ccccc1)C(=O)Nc1ccc([N+](=O)[O-])cc1 [D-0Gly--Cha--Arg--4NA] (H-[dPhg]-[Cha]-Arg-pNA) | 5.13 |
| CC[C@H](C)[C@H](N)C(=O)N[C@@H](CC1CCCCC1)C(=O)N[C@@H](CCCNC(=N)N)C(=O)Nc1ccc([N+](=O)[O-])cc1 [L-Ile--Cha--Arg--4NA] (H-Ile-[Cha]-Arg-pNA) | 4.98 |
| NCCCC[C@H](NC(=O)[C@H](CC1CCCCC1)NC(=O)[C@H](N)c1ccccc1)C(=O)Nc1ccc([N+](=O)[O-])cc1 [D-0Gly--Cha--Lys--4NA] (H-[dPhg]-[Cha]-Lys-pNA) | < 3.70 |
| CC(C)C[C@H](NC(=O)[C@@H](N)C1CCCCC1)C(=O)N[C@@H](CCCNC(=N)N)C(=O)Nc1ccc([N+](=O)[O-])cc1 [L-Chg--Leu--Arg--4NA] (H-[Chg]-Leu-Arg-pNA) | 4.73 |

target: T1, Human urinary kallikrein; experiment: KM determination: hydrolysis of substrate analogues by HUK (HPLC, scintillation counting); format: biochemical; conditions: hydrolysis by HUK; kininogen = 1.0
Description: as §1
KM Determination: Hydrolysis of the substrate analogue inhibitors by HUK was measured by combining the test inhibitor at different concentrations on either side of the KM value with the enzyme at pH 9.0 for thirty minutes at 37 C. The cleavage products were separated from the starting material in the digest by HPLC on a Beckman octadecylsilane (ODS) column (1×25 cm) using a thirty minute gradient of from 0-70% CH3 CN in triethylammonium phosphate buffer (pH 7.0). The starting materials and reaction products were completely resolved under these conditions. Absorbance of the HPLC effluent was monitored at 220 nm. Individual fractions were collected and the amount of peptide degradation products was quantitated by counting in a liquid scintillation counter. Samples containing individual inhibitors were incubated without HUK and solvent blanks were also chromatographed and analyzed in the same way.
For test purposes, in these HUA cleavage studies, individual peptide sequences were synthesized, purified, and characterized as previously described herein. For these cleavage studies, doubly labelled peptides were prepared using [^3 H]-valine and […] respectively. In addition, 6.0N HCL-dioxane was used for removal of tert-butoxycarbonyl protecting groups and 90% hydrogen fluoride/10% anisole (volume/volume) for global deprotection on completion of the synthesis. After extraction and gel filtration on Sephadex G-15, final purification was completed by isocratic elution from a synchrom RP-P column (2.1×25 cm) with CH3 CN--H2 O (8 ml/min). The resultant peptides were deemed to be homogeneous by amino acid analysis; high performance liquid chromatography; thin layer chromatography; and A230 /A260 ratio analysis. […]

| Compound | RELATIVE SPECIFICITY |
| --- | --- |
| CC(=O)N[C@@H](Cc1ccccc1)C(=O)N[C@@H](CCCNC(=N)N)C(=O)N[C@@H](CO)C(=O)N[C@H](C(=O)N[C@@H](CCC(N)=O)C(N)=O)C(C)C [KKI-4, Ac--Phe--Arg--Ser--Val--Gln--NH2, reference compound] (Ac-FRSVQ-NH2) | 4.2 |
| CC(=O)N1CCC[C@H]1C(=O)N[C@@H](Cc1ccccc1)C(=O)N[C@@H](CCCNC(=N)N)C(=O)N[C@@H](CO)C(=O)N[C@H](C(=O)N[C@@H](CCC(N)=O)C(N)=O)C(C)C [KKI-5, Ac--Pro--Phe--Arg--Ser--Val--Gln--NH2, reference compound] (Ac-PFRSVQ-NH2) | 3.2 |
| CC(=O)N[C@@H](CO)C(=O)N1CCC[C@H]1C(=O)N[C@@H](Cc1ccccc1)C(=O)N[C@@H](CCCNC(=N)N)C(=O)N[C@@H](CO)C(=O)N[C@H](C(=O)N[C@@H](CCC(N)=O)C(N)=O)C(C)C [KKI-6, Ac--Ser--Pro--Phe--Arg--Ser--Val--Gln--NH2, reference compound] (Ac-SPFRSVQ-NH2) | 45.4 |

— patent publication US4835253A, “Specific inhibitors of tissue kallikrein” (The University Hospital, priority 1987, dated 1989)
